Results on twelve compounds are retold here after ChEMBL document CHEMBL1138676, “Liver-selective glucocorticoid antagonists: a novel treatment for type 2 diabetes” (J Med Chem, 2004).

One test addresses T1, Progesterone receptor (Homo sapiens, UniProt P06401).
T1 sequence (P06401 whole entry): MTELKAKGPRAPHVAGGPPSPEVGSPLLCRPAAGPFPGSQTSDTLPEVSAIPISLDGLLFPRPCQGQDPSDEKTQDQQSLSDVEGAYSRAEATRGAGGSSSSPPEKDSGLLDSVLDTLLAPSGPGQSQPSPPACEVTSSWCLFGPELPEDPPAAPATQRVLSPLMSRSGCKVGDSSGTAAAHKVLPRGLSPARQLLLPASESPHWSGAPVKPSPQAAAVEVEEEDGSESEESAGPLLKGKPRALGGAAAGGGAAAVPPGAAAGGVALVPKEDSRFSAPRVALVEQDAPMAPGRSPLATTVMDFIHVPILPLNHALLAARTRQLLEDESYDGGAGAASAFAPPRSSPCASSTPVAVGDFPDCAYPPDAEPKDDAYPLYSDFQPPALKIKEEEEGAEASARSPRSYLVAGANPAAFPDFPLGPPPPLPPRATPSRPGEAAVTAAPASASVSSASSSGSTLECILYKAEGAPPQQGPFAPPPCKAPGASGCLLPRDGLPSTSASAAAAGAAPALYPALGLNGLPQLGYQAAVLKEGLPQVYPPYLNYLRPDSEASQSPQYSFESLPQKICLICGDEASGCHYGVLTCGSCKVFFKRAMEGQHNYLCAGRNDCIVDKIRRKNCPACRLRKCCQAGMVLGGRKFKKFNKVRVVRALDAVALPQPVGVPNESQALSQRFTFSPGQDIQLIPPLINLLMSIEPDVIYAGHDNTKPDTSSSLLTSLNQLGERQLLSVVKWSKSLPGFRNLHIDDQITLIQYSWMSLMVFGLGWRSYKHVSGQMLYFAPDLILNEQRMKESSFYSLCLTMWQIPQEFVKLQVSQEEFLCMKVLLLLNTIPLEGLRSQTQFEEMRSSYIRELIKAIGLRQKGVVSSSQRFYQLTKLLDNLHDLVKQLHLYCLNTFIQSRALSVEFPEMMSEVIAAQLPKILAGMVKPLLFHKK
Put plainly: Inhibition of human progesterone receptor.

The target in test [1] is T2, Glucocorticoid receptor (Homo sapiens, UniProt P04150).
T2 sequence (P04150 whole entry): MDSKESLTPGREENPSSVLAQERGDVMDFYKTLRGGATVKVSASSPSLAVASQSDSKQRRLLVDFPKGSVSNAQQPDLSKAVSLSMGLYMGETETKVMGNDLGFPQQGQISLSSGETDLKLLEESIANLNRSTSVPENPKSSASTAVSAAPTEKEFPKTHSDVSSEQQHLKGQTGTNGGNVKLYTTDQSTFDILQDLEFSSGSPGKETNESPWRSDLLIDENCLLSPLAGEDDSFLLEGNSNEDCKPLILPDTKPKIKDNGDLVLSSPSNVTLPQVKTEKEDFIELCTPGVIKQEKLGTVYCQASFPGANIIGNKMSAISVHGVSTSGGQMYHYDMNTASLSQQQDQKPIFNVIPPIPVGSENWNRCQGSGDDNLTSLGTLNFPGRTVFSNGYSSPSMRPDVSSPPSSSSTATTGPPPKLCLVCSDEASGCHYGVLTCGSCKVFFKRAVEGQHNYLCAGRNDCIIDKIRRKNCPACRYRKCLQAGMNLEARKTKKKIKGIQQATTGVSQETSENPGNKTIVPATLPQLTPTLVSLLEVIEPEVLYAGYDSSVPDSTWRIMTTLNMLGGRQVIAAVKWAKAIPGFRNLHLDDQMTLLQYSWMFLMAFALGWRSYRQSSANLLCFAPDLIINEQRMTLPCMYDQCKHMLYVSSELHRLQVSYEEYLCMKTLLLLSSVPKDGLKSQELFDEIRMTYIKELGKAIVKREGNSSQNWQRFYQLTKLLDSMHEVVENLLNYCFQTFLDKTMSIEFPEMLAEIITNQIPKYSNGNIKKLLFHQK
Put plainly: Inhibition of glucocorticoid receptor dependent alkaline phosphatase activity. Format: functional.

In test [2] the target is T3, Thyroid hormone receptor beta (Homo sapiens, UniProt P10828).
T3 sequence (P10828 whole entry): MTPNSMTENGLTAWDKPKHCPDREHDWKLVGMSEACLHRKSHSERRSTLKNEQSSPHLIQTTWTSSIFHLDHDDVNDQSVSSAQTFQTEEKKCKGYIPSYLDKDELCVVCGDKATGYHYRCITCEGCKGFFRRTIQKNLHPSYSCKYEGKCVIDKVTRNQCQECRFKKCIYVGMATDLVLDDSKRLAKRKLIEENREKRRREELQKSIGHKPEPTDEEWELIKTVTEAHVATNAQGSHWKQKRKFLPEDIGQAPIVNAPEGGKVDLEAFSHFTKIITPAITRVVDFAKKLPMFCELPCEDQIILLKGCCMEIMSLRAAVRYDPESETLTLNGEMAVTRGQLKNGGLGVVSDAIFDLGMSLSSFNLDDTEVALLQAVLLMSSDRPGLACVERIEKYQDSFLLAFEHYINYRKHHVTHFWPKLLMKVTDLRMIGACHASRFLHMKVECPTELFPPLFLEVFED
Put plainly: Inhibition of human Thyroid hormone receptor beta.

The target of test [3] is T4, Thyroid hormone receptor alpha (Homo sapiens, UniProt P10827).
T4 sequence (P10827 whole entry): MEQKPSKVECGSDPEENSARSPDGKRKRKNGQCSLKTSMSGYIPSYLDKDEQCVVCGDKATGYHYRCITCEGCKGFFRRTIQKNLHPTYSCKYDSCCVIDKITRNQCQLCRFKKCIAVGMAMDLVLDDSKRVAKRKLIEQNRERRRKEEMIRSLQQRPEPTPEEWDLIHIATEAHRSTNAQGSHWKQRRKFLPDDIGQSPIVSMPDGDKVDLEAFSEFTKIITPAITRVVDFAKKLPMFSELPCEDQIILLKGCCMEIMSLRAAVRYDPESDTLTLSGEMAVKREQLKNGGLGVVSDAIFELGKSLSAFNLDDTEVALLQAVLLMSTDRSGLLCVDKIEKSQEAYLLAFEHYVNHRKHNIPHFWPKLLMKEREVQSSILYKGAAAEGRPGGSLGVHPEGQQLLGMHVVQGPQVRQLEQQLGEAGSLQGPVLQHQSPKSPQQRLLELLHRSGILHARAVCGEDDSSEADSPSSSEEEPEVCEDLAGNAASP
The experiment in a line: Inhibition of human Thyroid hormone receptor alpha.

The target in test [4] is T2, Glucocorticoid receptor. The experiment in a line: Inhibition of human glucocorticoid receptor.
Test [5] is described as follows: Inhibitory activity against rat lymphocytes. More on the design: concentration or dose not given beside the values.
The target in test [6] is Glucocorticoid receptor (Rattus norvegicus) (UniProt P06536). The experiment in a line: Inhibition of glucocorticoid receptor mediated tyrosine aminotransferase activity. Set-up: concentration or dose not given beside the values. As to conditions: concentration not given here.
Glucocorticoid receptor (Rattus norvegicus), sequence (P06536 whole entry, looked up): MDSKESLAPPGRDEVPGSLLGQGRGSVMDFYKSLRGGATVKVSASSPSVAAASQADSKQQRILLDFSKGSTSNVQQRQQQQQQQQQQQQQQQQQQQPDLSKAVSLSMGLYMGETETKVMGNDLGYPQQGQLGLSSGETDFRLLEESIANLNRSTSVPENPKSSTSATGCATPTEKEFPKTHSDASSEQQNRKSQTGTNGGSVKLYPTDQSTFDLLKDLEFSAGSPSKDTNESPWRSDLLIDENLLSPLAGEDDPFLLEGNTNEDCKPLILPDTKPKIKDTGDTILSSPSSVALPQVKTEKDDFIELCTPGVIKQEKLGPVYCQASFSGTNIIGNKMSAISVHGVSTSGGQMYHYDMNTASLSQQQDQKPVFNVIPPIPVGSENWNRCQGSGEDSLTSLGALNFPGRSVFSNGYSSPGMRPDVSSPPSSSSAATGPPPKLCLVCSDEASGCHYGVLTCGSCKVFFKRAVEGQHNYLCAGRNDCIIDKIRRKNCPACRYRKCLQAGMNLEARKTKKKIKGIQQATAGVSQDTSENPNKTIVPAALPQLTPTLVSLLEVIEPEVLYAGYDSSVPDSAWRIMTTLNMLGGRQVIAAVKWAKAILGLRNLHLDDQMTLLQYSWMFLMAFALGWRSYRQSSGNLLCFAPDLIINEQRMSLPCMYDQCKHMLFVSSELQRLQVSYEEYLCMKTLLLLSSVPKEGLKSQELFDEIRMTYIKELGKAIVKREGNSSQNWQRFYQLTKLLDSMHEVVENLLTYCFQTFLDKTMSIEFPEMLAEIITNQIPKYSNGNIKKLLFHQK

As for `C#C[C@]1(O)CC[C@H]2[C@@H]3CCC4=CC(=O)CCC4=C3[C@@H](c3ccc(N(C)CCOC4CC[C@@]5(C)[C@@H](C4)C[C@@H](O)[C@@H]4[C@@H]5C[C@H](O)[C@]5(C)[C@@H]([C@H](C)CCC(=O)O)CC[C@@H]45)cc3)C[C@@]21C` (stereo in doubt; form 1), the Ki is 3.3 nM on Progesterone receptor; 11 nM on Glucocorticoid receptor [1]; above 2250 nM in test [2]; above 1250 nM in test [3]; 0.67 nM on Glucocorticoid receptor [4]. The Inhibition in test [5] is on record as -14%.

Consider `C#C[C@]1(O)CC[C@H]2[C@@H]3CCC4=CC(=O)CCC4=C3[C@@H](c3ccc(N(C)CCCOC4CC[C@@]5(C)[C@@H](C4)C[C@@H](O)[C@@H]4[C@@H]5C[C@H](O)[C@]5(C)[C@@H]([C@H](C)CCC(=O)O)CC[C@@H]45)cc3)C[C@@]21C` (stereo partly specified), for which the Ki was 1.1 nM at Progesterone receptor; 1.1 nM on Glucocorticoid receptor [1]; 1900 nM in test [2]; above 1250 nM in test [3]; 0.22 nM on Glucocorticoid receptor [4]. The Inhibition in test [5] is recorded as -5%. The inhibition in test [6] is 64%.

On to `C#C[C@]1(O)CC[C@H]2[C@@H]3CCC4=CC(=O)CCC4=C3[C@@H](c3ccc(N(C)C(=O)CC[C@H](NC(=O)CC[C@@H](C)[C@H]4CC[C@H]5[C@@H]6[C@H](O)C[C@@H]7C[C@H](O)CC[C@]7(C)[C@H]6C[C@H](O)[C@]45C)C(=O)O)cc3)C[C@@]21C`, for which the Ki at Progesterone receptor was 1.2 nM; on Glucocorticoid receptor [1], 250 nM; in test [2], above 2250 nM; in test [3], 1200 nM; at Glucocorticoid receptor [4] it was 3 nM.

Consider `C#C[C@]1(O)CC[C@H]2[C@@H]3CCC4=CC(=O)CCC4=C3[C@@H](c3ccc(N(C)C(C)=O)cc3)C[C@@]21C`, for which the Ki at Progesterone receptor is 6.4 nM; at Glucocorticoid receptor [1], 1.4 nM; in test [2], above 2250 nM; in test [3], 790 nM; on Glucocorticoid receptor [4], 0.4 nM.

With `C#C[C@]1(O)CC[C@H]2[C@@H]3CCC4=CC(=O)CCC4=C3[C@@H](c3ccc(N(C)C(=O)CNC(=O)O[C@@H]4C[C@@H]5CC(O)CC[C@]5(C)[C@H]5C[C@H](O)[C@]6(C)[C@@H]([C@H](C)CCC(=O)O)CC[C@H]6[C@H]45)cc3)C[C@@]21C` (stereo partly specified), the Ki on Progesterone receptor is 4.4 nM; at Glucocorticoid receptor [1], 49 nM; in test [2] it was above 2250 nM; in test [3], above 1250 nM; on Glucocorticoid receptor [4], 1.1 nM.

Regarding `C#C[C@]1(O)CC[C@H]2[C@@H]3CCC4=CC(=O)CCC4=C3[C@@H](c3ccc(N(C)CCOC4CC[C@@]5(C)[C@@H](C4)C[C@@H](O)[C@@H]4[C@@H]5C[C@H](O)[C@]5(C)[C@@H]([C@H](C)CCC(=O)NCC(=O)O)CC[C@@H]45)cc3)C[C@@]21C` (stereo partly specified), the Ki is 1 nM at Progesterone receptor; 8.6 nM at Glucocorticoid receptor [1]; above 2250 nM in test [2]; above 1250 nM in test [3]; 0.42 nM at Glucocorticoid receptor [4].

`C#C[C@]1(O)CC[C@H]2[C@@H]3CCC4=CC(=O)CCC4=C3[C@@H](c3ccc(N(C)CCCS(=O)(=O)N(C)C4CC[C@@]5(C)[C@@H](C4)C[C@@H](O)[C@@H]4[C@@H]5C[C@H](O)[C@]5(C)[C@@H]([C@H](C)CCC(=O)O)CC[C@@H]45)cc3)C[C@@]21C` (stereo partly specified): the Ki was 1.9 nM on Progesterone receptor, 15 nM on Glucocorticoid receptor [1] and 0.42 nM at Glucocorticoid receptor [4]. The Inhibition in test [5] is recorded as 9%.

In the case of `C#C[C@]1(O)CC[C@H]2[C@@H]3CCC4=CC(=O)CCC4=C3[C@@H](c3ccc(N(C)C(=O)CNC(=O)OC4CC[C@@]5(C)[C@@H](C4)C[C@@H](O)[C@@H]4[C@@H]5C[C@H](O)[C@]5(C)[C@@H]([C@H](C)CCC(=O)O)CC[C@@H]45)cc3)C[C@@]21C` (stereo partly specified), the Ki is 2.4 nM on Progesterone receptor; 50 nM at Glucocorticoid receptor [1]; above 2250 nM in test [2]; 1100 nM in test [3]; 2.1 nM on Glucocorticoid receptor [4].

For `C#C[C@]1(O)CC[C@H]2[C@@H]3CCC4=CC(=O)CCC4=C3[C@@H](c3ccc(N(C)CCC[C@H]4[C@H](O)CC[C@@]5(C)[C@@H]4C[C@@H](O)[C@@H]4[C@@H]5C[C@H](O)[C@]5(C)[C@@H]([C@H](C)CCC(=O)O)CC[C@@H]45)cc3)C[C@@]21C`, the values for the Ki on Progesterone receptor, at Glucocorticoid receptor [1] and at Glucocorticoid receptor [4] were 2.1 nM, 52 nM and 0.8 nM, respectively.

As to `C#C[C@]1(O)CC[C@H]2[C@@H]3CCC4=CC(=O)CCC4=C3[C@@H](c3ccc(N(C)CCNC(=O)N(C)C4CC[C@@]5(C)[C@@H](C4)C[C@@H](O)[C@@H]4[C@@H]5C[C@H](O)[C@]5(C)[C@@H]([C@H](C)CCC(=O)O)CC[C@@H]45)cc3)C[C@@]21C` (stereo partly specified), the Ki is 3.5 nM at Progesterone receptor; 15 nM on Glucocorticoid receptor [1]; above 2250 nM in test [2]; above 1250 nM in test [3]; 0.3 nM on Glucocorticoid receptor [4].

Take `C#C[C@]1(O)CC[C@H]2[C@@H]3CCC4=CC(=O)CCC4=C3[C@@H](c3ccc(N(C)CCOC4CC[C@@]5(C)[C@@H](C4)C[C@@H](O)[C@@H]4[C@@H]5C[C@H](O)[C@]5(C)[C@@H]([C@H](C)CCC(=O)NCCS(=O)(=O)O)CC[C@@H]45)cc3)C[C@@]21C` (stereo partly specified): the Ki was 0.53 nM on Progesterone receptor; 37 nM on Glucocorticoid receptor [1]; above 2250 nM in test [2]; above 1250 nM in test [3]; 0.27 nM on Glucocorticoid receptor [4].

Consider `C#C[C@]1(O)CC[C@H]2[C@@H]3CCC4=CC(=O)CCC4=C3[C@@H](c3ccc(N(C)CCOC4CC[C@@]5(C)[C@@H](C4)C[C@@H](O)[C@@H]4[C@@H]5C[C@H](O)[C@]5(C)[C@@H]([C@H](C)CCC(=O)O)CC[C@@H]45)cc3)C[C@@]21C` (stereo in doubt; form 2), for which the Ki on Progesterone receptor amounted to 0.81 nM; at Glucocorticoid receptor [1], 1.1 nM; in test [2], 1500 nM; in test [3] it was 670 nM; at Glucocorticoid receptor [4] it was 0.27 nM. In addition, the Inhibition in test [5] was 9%.

One may read the Ki as a measure of affinity in units of concentration, obtained from inhibition or displacement. The term Inhibition denotes the drop in the measured response relative to a control, in per cent. A word on the inhibition: it is the percentage by which the read-out fell short of the control.
